Measurements reported in patent US9102678B2, “Compounds and methods for inhibiting mitotic progression” (Millennium Pharmaceuticals, Inc., priority 2004, dated 2015).
pIC50: −log10 of the molar value.

Target: T1, recombinant murine Aurora A enzyme (Mus musculus, UniProt P97477)
T1 construct: hexahistidine (His6) (N); made in house; host or cells: insect cells, baculovirus (Bac-to-Bac, Invitrogen)
Assay: Aurora A DELFIA Kinase Assay
Assay type: biochemical
Conditions: mouse Aurora A, 250 μM ATP; threshold less than or equal to 100 nM; read-out: IC50
From the text: Recombinant mouse Aurora A with an amino-terminus hexahistidine tag (His-Aurora A) was expressed using a standard baculovirus vector and insect cell expression system (Bac-to-Bac®, Invitrogen).
Soluble, recombinant mouse Aurora A was purified from insect cells using Ni-NTA agarose (Qiagen) as described by the manufacturer and further purified over an S75 size exclusion column (Amersham Pharmacia Biotech).
Aurora A DELFIA® Kinase Assay
The enzymatic reaction mixture, with and without Aurora inhibitors, was incubated for 15 minutes at room temperature before termination with 100 μL of stop buffer (1% BSA, 0.05% Surfact-AMPS-20, and 100 mM EDTA). A total of 100 μL of the enzyme reaction mixture was transferred to wells of a Neutravidin-coated 96-well plate (Pierce) and incubated at room temperature for 30 minutes. The wells were washed with wash buffer (25 mM Tris, 150 mM sodium chloride, and 0.1% Tween 20) and incubated for 1 hour with 100 μL of antibody reaction mixture containing 1% BSA, 0.05% Surfact-AMPS-20, anti-phospho-PKA rabbit polyclonal antibody (1:2000, New England Biolabs), and europium labeled anti-rabbit IgG (1:2000, Perkin Elmer). The wells were washed and then the bound europium was liberated using 100 μL of Enhancement Solution (Perkin Elmer). Quantification of europium was done using a Wallac™ EnVision (Perkin Elmer).

T1 sequence (P97477 whole entry): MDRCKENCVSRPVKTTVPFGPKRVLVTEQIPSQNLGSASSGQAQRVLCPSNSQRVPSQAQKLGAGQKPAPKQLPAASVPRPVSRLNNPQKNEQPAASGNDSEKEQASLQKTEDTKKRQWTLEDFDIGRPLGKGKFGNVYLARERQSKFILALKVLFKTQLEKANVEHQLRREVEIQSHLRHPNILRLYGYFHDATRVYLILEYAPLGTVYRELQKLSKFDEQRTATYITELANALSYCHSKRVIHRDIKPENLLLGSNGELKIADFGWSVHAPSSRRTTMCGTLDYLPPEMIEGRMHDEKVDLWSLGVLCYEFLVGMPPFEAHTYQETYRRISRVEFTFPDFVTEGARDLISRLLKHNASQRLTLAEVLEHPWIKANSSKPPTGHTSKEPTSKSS

SMILES	pIC50
Cc1ccc2c(c1)C(c1ccccc1F)=NCc1cnc(Nc3ccc(C(=O)NCCN4CCOCC4)cc3)nc1-2 [Compound I-148, 4-[7-(2-Fluoro-phenyl)-9-methyl-5H-benzo[c]pyrimido[4,5-e]azepin-2-ylamino]-N-(2-morpholin-4-yl-ethyl)-benzamide]	≥ 7.00
CN1CCN(C(=O)c2cccc(Nc3ncc4c(n3)-c3ccc(Cl)cc3C(c3ccccc3F)=NC4)c2)CC1 [Compound I-163, {3-[9-Chloro-7-(2-fluoro-phenyl)-5H-benzo[c]pyrimido[4,5-e]azepin-2-ylamino]-phenyl}-(4-methyl-piperazin-1-yl)-methanone]	≥ 7.00
O=C(c1ccc(Nc2ncc3c(n2)-c2ccc(Cl)cc2C(c2ccccc2F)=NC3)cc1)N1CCN(CCN2CCCC2)CC1 [Compound I-171, 9-Chloro-7-(2-fluorophenyl)-N-(4-{[4-(2-pyrrolidin-1-ylethyl)piperazin-1-yl]carbonyl}phenyl)-5H-pyrimido[5,4-d][2]benzazepin-2-amine]	≥ 7.00
CN(C)C1CCN(C(=O)c2ccc(Nc3ncc4c(n3)-c3ccc(Cl)cc3C(c3c(F)cccc3F)=NC4)cc2)C1 (stereo not drawn) [Compound I-176, 9-Chloro-7-(2,6-difluorophenyl)-N-(4-{[3-(dimethylamino)pyrrolidin-1-yl]carbonyl}phenyl)-5H-pyrimido[5,4-d][2]benzazepin-2-amine]	≥ 7.00
COc1cccc(F)c1C1=NCc2cnc(Nc3ccc(C(=O)N4CC(C)NC(C)C4)cc3)nc2-c2ccc(Cl)cc21 (stereo not drawn) [Compound I-177, 9-Chloro-N-{4-[(3,5-dimethylpiperazin-1-yl)carbonyl]phenyl}-7-(2-fluoro-6-methoxyphenyl)-5H-pyrimido[5,4-d][2]benzazepin-2-amine]	≥ 7.00
COc1cccc(F)c1C1=NCc2cnc(Nc3ccc(C(=O)N4CCC(N(C)C)C4)cc3)nc2-c2ccc(Cl)cc21 (stereo not drawn) [Compound I-178, 9-Chloro-N-(4-{[3-(dimethylamino)pyrrolidin-1-yl]carbonyl}phenyl)-7-(2-fluoro-6-methoxyphenyl)-5H-pyrimido[5,4-d][2]benzazepin-2-amine]	≥ 7.00
COc1cccc(F)c1C1=NCc2cnc(Nc3ccc(C(=O)N4CC(N(C)C)C4)cc3)nc2-c2ccc(Cl)cc21 [Compound I-179, 9-Chloro-N-(4-{[3-(dimethylamino)azetidin-1-yl]carbonyl}phenyl)-7-(2-fluoro-6-methoxyphenyl)-5H-pyrimido[5,4-d][2]benzazepin-2-amine]	≥ 7.00
CN(C)C1CN(C(=O)c2ccc(Nc3ncc4c(n3)-c3ccc(Cl)cc3C(c3c(F)cccc3F)=NC4)cc2)C1 [Compound I-180, 9-Chloro-7-(2,6-difluorophenyl)-N-(4-{[3-(dimethylamino)azetidin-1-yl]carbonyl}phenyl)-5H-pyrimido[5,4-d][2]benzazepin-2-amine]	≥ 7.00

More lines, now with the values ahead:

pIC50	SMILES
≥ 7.00	CN(CCc1ccccn1)C(=O)c1ccc(Nc2ncc3c(n2)-c2ccc(Cl)cc2C(c2ccccc2F)=NC3)cc1 [Compound I-160, 4-[9-Chloro-7-(2-fluoro-phenyl)-5H-benzo[c]pyrimido[4,5-e]azepin-2-ylamino]-N-methyl-N-(2-pyridin-2-yl-ethyl)-benzamide]
≥ 7.00	O=C(NCCc1ccccn1)c1ccc(Nc2ncc3c(n2)-c2ccc(Cl)cc2C(c2ccccc2F)=NC3)cc1 [Compound I-161, 4-[9-Chloro-7-(2-fluoro-phenyl)-5H-benzo[c]pyrimido[4,5-e]azepin-2-ylamino]-N-(2-pyridin-2-yl-ethyl)-benzamide]
≥ 7.00	O=C(O)c1ccc(Nc2ncc3c(n2)-c2ccc(Cl)cc2C(c2c(F)cccc2Cl)=NC3)cc1 [Compound I-174, 4-{[9-Chloro-7-(2-chloro-6-fluorophenyl)-5H-pyrimido-[5,4-d][2]benzazepin-2-yl]amino}benzoic acid]
≥ 7.00	CC1CN(C(=O)c2ccc(Nc3ncc4c(n3)-c3ccc(Cl)cc3C(c3c(F)cccc3F)=NC4)cc2)CC(C)N1 (stereo not drawn) [Compound I-175, 9-Chloro-7-(2,6-difluorophenyl)-N-{4-[(3,5-dimethylpiperazin-1-yl)carbonyl]phenyl}-5H-pyrimido[5,4-d][2]benzazepin-2-amine]
